Structures are written as SMILES.

One assay concerns the target T1, TrkB (Homo sapiens, UniProt Q16620).
T1 construct: The kinase domain of the human TrkB receptor (amino acids 526-838); His; purchased Invitrogen; host or cells: insect cells
In words: TrkB tyrosine kinase inhibition assay (recombinant enzyme, polyGluTyr phosphorylation, 33P). The assay is classed as biochemical. To be noted: kinase domain of human TrkB (amino acids 526-838), substrate PGT 0.1 mg/ml, 30 uM ATP, 1 hour at 30° C. How it is done: The ability of compounds of the invention to inhibit tyrosine kinase activity of TrkB may be measured using a recombinant enzyme in an assay that measures the ability of compounds to inhibit the phosphorylation of the exogenous substrate, polyGluTyr (PGT, 4:1). The kinase domain of the human TrkB receptor (amino acids 526-838) is expressed in insect cells as a histidine (His)-fusion protein and is commercially available from Invitrogen™. The enzyme assay is performed in a 96-well plate. Test compounds are first dissolved in dimethylsulfoxide (DMSO) and then serially-diluted in a 96-well plate. The serially-diluted compounds are transferred to the 96-well assay plate so that the final concentration of DMSO in the enzyme assay is 1.64%. All assay components are diluted in phosphorylation buffer (20 mm MOPS, 10 mM MgCl2, 1 mM EDTA, 0.015% Brij-35, 0.1 mg/ml BSA, 0.0025% Beta-Mercaptoethanol). The recombinant enzyme is added to the assay plate containing test compound and the reaction is initiated with a substrate solution containing a final concentration of 0.1 mg/ml PGT, 30 uM ATP, and 0.008mCi/ml ^33P-gammaATP (3000 Ci/mmol). After a 1 hour incubation at 30° C., the reaction is terminated with 10% TCA and incubated at 4° C. for 1 hour. The reaction is filtered onto a Unifilter® GF/C™ filter plate that has been pre-soaked with 0.1M NaPyrophosphate. Microscint-20 is then added to the dried filter plate and the captured ^33P-phosphorylated PGT is quantitated on a microscintillation plate counter (TopCount•NXT™). Inhibition of the kinase enzymatic activity by the test compound is detected by a reduction in scintillation, and the concentration of compound that is required to inhibit the signal by 50% is reported as the IC50 value for the test compound.

For the next assay, the target named is T2, TrkA (Homo sapiens, UniProt P04629).
T2 construct: The kinase domain of the human TrkA receptor is expressed in Sf9 insect cells as a histidine (His)-fusion protein; His; made in house; host or cells: Sf9 insect cells (baculovirus)
T2 sequence (P04629 510-781 limits assumed): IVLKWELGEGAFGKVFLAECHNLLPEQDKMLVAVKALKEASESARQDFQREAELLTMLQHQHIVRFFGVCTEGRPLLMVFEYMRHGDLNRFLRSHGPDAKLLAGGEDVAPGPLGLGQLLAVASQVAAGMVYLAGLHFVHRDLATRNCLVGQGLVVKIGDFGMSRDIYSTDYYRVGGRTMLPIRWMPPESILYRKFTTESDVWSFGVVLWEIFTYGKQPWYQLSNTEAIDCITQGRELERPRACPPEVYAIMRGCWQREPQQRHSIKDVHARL
In words: TrkA tyrosine kinase inhibition assay (recombinant enzyme, polyGluTyr phosphorylation, 33P). To be noted: kinase domain of human TrkA, substrate PGT 0.1 mg/ml, 30 uM ATP, 1 hour at 30° C. In kind it is biochemical. From the text:
The ability of compounds of the invention to inhibit tyrosine kinase activity of TrkA may be measured using a recombinant enzyme in an assay that measures the ability of compounds to inhibit the phosphorylation of the exogenous substrate, polyGluTyr (PGT, 4:1). The kinase domain of the human TrkA receptor is expressed in Sf9 insect cells as a histidine (His)-fusion protein using a baculovirus expression system. The protein is purified from the lysates of these cells using an Ni-NTA affinity column. After the recombinant enzyme is purified, it is activated by incubation with cold ATP. The enzyme assay is performed in a 96-well plate. Test compounds are first dissolved in dimethylsulfoxide (DMSO) and then serially-diluted in a 96-well plate. The serially-diluted compounds are transferred to the 96-well assay plate so that the final concentration of DMSO in the enzyme assay is 1.64%. All assay components are diluted in phosphorylation buffer (20 mm MOPS, 10 mM MgCl2, 1 mM EDTA, 0.015% Brij-35, 0.1 mg/ml BSA, 0.0025% Beta-Mercaptoethanol). The recombinant enzyme is added to the assay plate containing test compound and the reaction is initiated with a substrate solution containing a final concentration of 0.1 mg/ml PGT, 30 uM ATP, and 0.008mCi/ml ^33P-gammaATP (3000Ci/mmol). After a 1 hour incubation at 30° C., the reaction is terminated with 10% TCA and incubated at 4° C. for 1 hour. The reaction is filtered onto a Unifilter® GF/C™ filter plate that has been presoaked with 0.1M NaPyrophosphate. Microscint-20 is then added to the dried filter plate and the captured ^33P-phosphorylated PGT is quantitated on a microscintillation plate counter (TopCount•NXT™). Inhibition of the kinase enzymatic activity by the test compound is detected by a reduction in scintillation, and the concentration of compound that is required to inhibit the signal by 50% is reported as the IC50 value for the test compound.

T1 sequence (Q16620 510-822): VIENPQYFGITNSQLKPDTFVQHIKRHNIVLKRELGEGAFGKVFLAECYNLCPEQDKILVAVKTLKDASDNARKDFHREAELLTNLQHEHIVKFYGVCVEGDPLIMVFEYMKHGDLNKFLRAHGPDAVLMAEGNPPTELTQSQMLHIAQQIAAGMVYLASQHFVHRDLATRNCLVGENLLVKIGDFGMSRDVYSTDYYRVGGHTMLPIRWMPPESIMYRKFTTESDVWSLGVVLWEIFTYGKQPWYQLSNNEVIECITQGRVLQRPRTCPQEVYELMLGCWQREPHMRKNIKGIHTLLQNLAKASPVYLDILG

On to `C[C@H](Nc1nc(Nc2cc(C3CC3)[nH]n2)nn2cccc12)c1ccc(F)cc1` [Example 1, N^2-(5-cyclopropyl-1H-pyrazol-3-yl)-N^4-((1S)-1-(4-fluorophenyl)ethyl)pyrrolo[2,1-f][1,2,4]triazine-2,4-diamine], for which the concentration for half-maximal inhibition (IC50) (commonly the concentration that inhibits the measured activity by half) at TrkB turned out to be 0.8 nM; at TrkA, 0.3 nM.

Turning to `C[C@H](Nc1nc(Nc2cc(C3CC3)[nH]n2)nn2cccc12)C1CCCCC1` [Example 32, N^4-((1S)-1-cyclohexylethyl)-N^2-(5-cyclopropyl-1H-pyrazol-3-yl)pyrrolo[2,1-ƒ][1,2,4]triazine-2,4-diamine], the IC50 on TrkB was determined as 3 nM; on TrkA, 2 nM.

As to `CCCC[C@H](C)Nc1nc(Nc2cc(C3CC3)[nH]n2)nn2cccc12` [Example 21, N^2-(5-cyclopropyl-1H-pyrazol-3-yl)-N^4-((1S)-1-methylpentyl)pyrrolo[2,1-ƒ][1,2,4]triazine-2,4-diamine], the IC50 on TrkB was 2 nM; on TrkA it was 0.5 nM.

Regarding `CC(C)[C@@H](CO)Nc1nc(Nc2cc(C3CC3)[nH]n2)nn2cccc12` [Example 24, (2S)-2-((2-((5-cyclopropyl-1H-pyrazol-3-yl)amino)pyrrolo[2,1-ƒ][1,2,4]triazin-4-yl)amino)-3-methyl-1-butanol], the IC50 amounted to 64 nM at TrkB and 36 nM at TrkA.

The values are drawn from patent publication US8268998B2, “Pyrrolotriazine kinase inhibitors” (Bristol-Myers Squibb Company, priority 2006, dated 2012).
